We go through ten molecules from patent US4298610A, “Ester derivatives of quinolopyran-4-one-2-carboxylic acids and antiallergic antasthmatics” (priority 1978, dated 1981).

For data set [1] the following is noted: cited from earlier work.
The subject of another data set is allergic asthma. The following applies: Cox et al; cited from earlier work.
Data set [2] concerns passive cutaneous anaphylaxis. Description: passive cutaneous anaphylaxis test (P.C.A.) on rats, oral administration. The data set is classed as in vivo, rat (SLC Wister). Conditions: 0.5 h, rat, antigen 30 minutes after administration, read-out: Percent inhibition (%). The procedure:
Various 5-hydroxy-quinolopyran-4-one-2-carboxylic acid esters in terms of the R group represented by the general formula [I] were prepared. […] In order to estimate the efficacy of each compound as an anti-allergic antasthmatic, the efficacy was evaluated according to a passive cutaneous anaphylaxis test (P.C.A.) on rats.
To SLC Wister rats were administered intracutaneously egg white albumin recrystallized 5 times and Bodetallapertussis Vaccine, and serum was collected after 13 days from the rats. […] A physiological salt solution in which egg white albumin and a dye (Evans' blue) were dissolved was administered intravenously, 30 minutes after the oral administration, to the rats; and 30 minutes thereafter the back skins of the rats were peeled off. The dye that transuded from the peeled skin was extracted with Na2 SO4 and acetone, and the quantities of the dye were measured by colorimetry at 620 m μ.

In data set [3] the test system is passive cutaneous anaphylaxis. As to the kind of experiment: duration of action in the passive cutaneous anaphylaxis test of the rats, interval between oral administration and antigen varied. The data set is classed as in vivo, rat (SLC Wister). The following applies: 30 mg/kg. As to the method:
To SLC Wister rats were administered intracutaneously egg white albumin recrystallized 5 times and Bodetallapertussis Vaccine, and serum was collected after 13 days from the rats. […] The serum was diluted 128 times and it was then administered intracutaneously to the back of the rats. After 48 hours, the compounds of the present invention in the quantities shown in Table 1 which had been suspended in 1% tragacanth solution were administered orally to the rats. A physiological salt solution in which egg white albumin and a dye (Evans' blue) were dissolved was administered intravenously, 30 minutes after the oral administration, to the rats; and 30 minutes thereafter the back skins of the rats were peeled off. The dye that transuded from the peeled skin was extracted with Na2 SO4 and acetone, and the quantities of the dye were measured by colorimetry at 620 m μ.
In the above-described passive cutaneous anaphylaxis test of the rats, the intervals between the oral administration of the present compounds and the administration of egg white albumin and the dye were variously changed to observe the changes in the effect of the compounds depending upon the intervals.
As a representative compound of the present invention, 2-methyl-1-pentyl ester of 7,8-dimethyl-5-hydroxy-quinolo[4,3-b]pyran-4-one-2-carboxylic acid was used. The percent inhibition is shown in Table 2 when the compound was orally administered in a ratio of 30 mg/kg.

Consider `O=C(O)c1cc(=O)c2c(OCC(O)COc3cccc4oc(C(=O)O)cc(=O)c34)cccc2o1` [disodium cromoglycate], for which, in data set [1], the “absorption via oral administration” value was “cannot be absorbed via oral administration”. Also, the “effectiveness for allergic asthma” value in the data set with allergic asthma is reported as “effective for allergic asthma”.

Consider `Cc1ccc2c(nc(O)c3c(=O)cc(C(=O)OC(C)C(C)C)oc32)c1C` (stereo not shown) [3-methyl-2-butyl ester of 7,8-dimethyl-5-hydroxy-quinolo[4,3-b]pyran-4-one-2-carboxylic acid, reference compound], for which the inhibition in vivo at 30 mg/kg in data set [2] worked out at 22.6%.

Regarding `CCCCCOC(=O)c1cc(=O)c2c(O)nc3c(C)c(C)ccc3c2o1` [n-pentyl ester of 7,8-dimethyl-5-hydroxy-quinolo[4,3-b]pyran-4-one-2-carboxylic acid, reference compound], the inhibition in vivo at 30 mg/kg in data set [2] was 26.5%.

With `Cc1ccc2c(nc(O)c3c(=O)cc(C(=O)OCCO)oc32)c1C` [2-hydroxy-ethyl ester of 7,8-dimethyl-5-hydroxy-quinolo[4,3-b]pyran-4-one-2-carboxylic acid, reference compound], in data set [2] (100 mg/kg), the inhibition in vivo at 100 mg/kg was 21.4%.

For `CCCC(CC)OC(=O)c1cc(=O)c2c(O)nc3c(C)c(C)ccc3c2o1` (stereo not shown) [3-hexyl ester of 7,8-dimethyl-5-hydroxy-quinolo[4,3-b]pyran-4-one-2-carboxylic acid], the inhibition in vivo at 30 mg/kg in data set [2] was 96.1%.

With `CCC(CC)OC(=O)c1cc(=O)c2c(O)nc3c(C)c(C)ccc3c2o1` [3-pentyl ester of 7,8-dimethyl-5-hydroxy-quinolo[4,3-b]pyran-4-one-2-carboxylic acid], the inhibition in vivo at 30 mg/kg in data set [2] worked out at 65.3%.

For the molecule `CCC(C)C(C)OC(=O)c1cc(=O)c2c(O)nc3c(C)c(C)ccc3c2o1` (stereo not shown) [3-methyl-2-pentyl ester of 7,8-dimethyl-5-hydroxy-quinolo[4,3-b]pyran-4-one-2-carboxylic acid], the inhibition in vivo at 30 mg/kg in data set [2] was 68.3%.

On to `CCOC(=O)c1ccc2nc(O)c3c(=O)cc(C(=O)OCCC(C)C)oc3c2c1` [3-methyl-1-butyl ester of 9-ethoxycarbonyl-5-hydroxy-quinolo[4,3-b]pyran-4-one-2-carboxylic acid], for which the inhibition in vivo at 30 mg/kg in data set [2] stood at 52.7%.

As for `CCCC(C)COC(=O)c1cc(=O)c2c(O)nc3c(C)c(C)ccc3c2o1` (stereo not shown) [2-methyl-1-pentyl ester of 7,8-dimethyl-5-hydroxy-quinolo[4,3-b]pyran-4-one-2-carboxylic acid], the inhibition in vivo at 30 mg/kg in data set [2] is 97.9%. Besides, the “Percent inhibition (%)” value in data set [3] (period of time 10 min.) stood at 96.5%; in data set [3] (period of time 20 min.), 98.5%; in data set [3] (period of time 30 min.), 95.0%; in data set [3] (period of time 40 min.), 93.0%; in data set [3] (period of time 1 hr.) it was 92.5%; in data set [3] (period of time 2 hrs.), 72.5%. For the same molecule, the results for the “Percent inhibition (%)” value in data set [3] (period of time 3 hrs.) and in data set [3] (period of time 4 hrs.) were 61.5% and 53.0%, respectively.

On to `Cc1ccc2c(nc(O)c3c(=O)cc(C(=O)OCC(C)(C)C)oc32)c1C` [2,2-dimethyl-1-propyl ester of 7,8-dimethyl-5-hydroxy-quinolo[4,3-b]pyran-4-one-2-carboxylic acid], for which the inhibition in vivo at 30 mg/kg in data set [2] was 93.2%.
